Laboratory results taken from patent US20180353460A1, “METHODS OF TREATING UROLOGICAL DISORDERS USING SARMs” (priority 2014, published 2018).
Values joined by “and” are separate entries in the source; they are usually repeats but may differ in a detail not shown here. Equal values may be shown once.

System: prostate, seminal vesicles and levator ani muscle
Test: Androgenic and anabolic activity in castrated (ORX) male rats, daily oral gavage for fourteen days
Assay type: in vivo, rat
Conditions: for ED50 in levator ani / ED50 in prostate / ED50 in seminal vesicles / Emax in levator ani / Emax in prostate / Emax in seminal vesicles: ORX rats, nonlinear regression; for dose that fully maintained or restored levator ani muscle weight (100% of intact) / levator ani muscle weight / prostate weight / seminal vesicle weight: castrated (ORX) rats; for levator ani muscle weight / prostate weight / seminal vesicle weight: oral gavage 14 days
Protocol: Male Sprague-Dawley rats weighing approximately 200 g were purchased from Harlan Bioproducts for Science (Indianapolis, Ind.). […] The anabolic and androgenic activity of compound of Formula VIII in intact animals was tested, as well as a dose response evaluation in acutely orchidectomized (ORX) animals. Regenerative effects of the compound of Formula VIII in chronically (9 days) ORX rats was similarly evaluated.
The test article for this study was weighed and dissolved in 10% DMSO (Fisher) diluted with PEG 300 (Acros Organics, NJ) for preparation of the appropriate dosage concentrations. […] Animals were randomly assigned to one of seven groups consisting of 4 to 5 animals per group. Control groups (intact and ORX) were administered vehicle daily. Compound of Formula VIII was administered via oral gavage at doses of 0.01, 0.03, 0.1, 0.3, 0.75, and 1 mg/day to both intact and ORX groups. Where appropriate, animals were castrated on day one of the study. Treatment with compound of Formula VIII began nine days post ORX and was administered daily via oral gavage for fourteen days.
(§1) In addition, ventral prostate, seminal vesicles, and levator ani muscle were removed, individually weighed, normalized to body weight, and expressed as a percentage of intact control. Student's T-test was used to compare individual dose groups to the intact control group. Significance was defined a priori as a P-value <0.05. Ventral prostate and seminal vesicle weights were evaluated as a measure of androgenic activity, whereas levator ani muscle weight was evaluated as a measure of anabolic activity. Blood was collected from the abdominal aorta, centrifuged, and sera were frozen at −80° C. prior to determination of serum hormone levels. Serum luteinizing hormone (LH) and follicle stimulating hormone (FSH) concentrations were determined.
Male Sprague-Dawley rats weighing approximately 200 g were purchased from Harlan Bioproducts for Science (Indianapolis, Ind.). […] Anabolic and androgenic activity of compound of Formula IX in intact animals was evaluated, and the dose response in acutely orchidectomized (ORX) animals was evaluated as well. Regenerative effects of compound of Formula IX in chronically (9 days) ORX rats were also assessed.
The compound was weighed and dissolved in 10% DMSO (Fisher) diluted with PEG 300 (Acros Organics, NJ) for preparation of the appropriate dosage concentrations. […] Intact and ORX animals were randomly assigned to one of seven groups consisting of 4 to 5 animals per group. Control groups (intact and ORX) were administered vehicle daily. Compound of Formula IX was administered via oral gavage at doses of 0.01, 0.03, 0.1, 0.3, 0.75, and 1 mg/day to both intact and ORX groups.
as §1, with “Castrated animals (on day one of the study) were randomly assigned to dose groups (4-5 animals/group) of 0.01, 0.03, 0.1, 0.3, 0.75, and 1 mg/day, for dose-response evaluation. Dosing began nine days post ORX and was administered daily via oral gavage for fourteen days. […] In” for “In”, “As a measure of androgenic activity, ventral” for “Ventral”, “evaluated,” for “evaluated as a measure of androgenic activity,”, “lutenizing” for “luteinizing”
Male Sprague-Dawley rats weighing approximately 200 g were purchased from Harlan Bioproducts for Science (Indianapolis, Ind.).

| Compound | ED50 in levator ani [mg/day] | ED50 in prostate [mg/day] | levator ani muscle weight (0.01 mg/day) | prostate weight (0.01 mg/day) | seminal vesicle weight (0.01 mg/day) | levator ani muscle weight (0.03 mg/day) | prostate weight (0.03 mg/day) | seminal vesicle weight (0.03 mg/day) | levator ani muscle weight (0.1 mg/day) | prostate weight (0.1 mg/day) | seminal vesicle weight (0.1 mg/day) | levator ani muscle weight (0.3 mg/day) | prostate weight (0.3 mg/day) | seminal vesicle weight (0.3 mg/day) | levator ani muscle weight (0.75 mg/day) | prostate weight (0.75 mg/day) | seminal vesicle weight (0.75 mg/day) | levator ani muscle weight (1 mg/day) | prostate weight (1 mg/day) | seminal vesicle weight (1 mg/day) | other results |
| --- | --- | --- | --- | --- | --- | --- | --- | --- | --- | --- | --- | --- | --- | --- | --- | --- | --- | --- | --- | --- | --- |
| C[C@](O)(COc1ccc(C#N)cc1)C(=O)Nc1ccc(C#N)c(C(F)(F)F)c1 [Compound IX, (S)—N-(4-Cyano-3-(trifluoromethyl)phenyl)-3-(4-cyanophenoxy)-2-hydroxy-2-methylpropanamide] | 0.02 ± 0.01 | 0.09 ± 0.07 | 59%±6% | 8%±2% | 12%±4% | 85%±9% | 20%±5% | 17%±5% | 112%±10% | 51%±19% | 35%±10% | 122%±16% | 56%±9% | 61%±15% | 127±12% | 80%±28% | 70%±14% | 129.66±2% | 74±12.5% | 80%±6% | ED50 in seminal vesicles: 0.17 ± 0.05 mg/day; Emax in levator ani: 131%±2%; Emax in prostate: 83%±25%; Emax in seminal vesicles: 85%±11%; dose that fully maintained or restored levator ani muscle weight (100% of intact) (oral gavage): > 0.1 mg/day |
| C[C@](O)(COc1ccc(C#N)cc1)C(=O)Nc1ccc(C#N)c(Cl)c1 [VIII, (S)—N-(3-Chloro-4-cyanophenyl)-3-(4-cyanophenoxy)-2-hydroxy-2-methylpropanamide] |  |  | 52%±8% | 17%±6% | 10%±3% | 67%±9% | 31%±3% | 13%±4% | 98%±10% | 43%±15% and 43±15% | 21%±6% | 103%±12% | 54%±17% | 43%±8% | 105%±12% | 58%±10% | 51%±9% | 110%±17% and 110±17% | 73%±12% and 73±12% | 69%±14% | anabolic ratio muscle/prostate weight (castrated rats, 0.01 mg/day): 3.02; anabolic ratio muscle/prostate weight (castrated rats, 0.03 mg/day): 2.13; anabolic ratio muscle/prostate weight (castrated rats, 0.1 mg/day): 2.27; anabolic ratio muscle/prostate weight (castrated rats, 0.3 mg/day): 1.90; anabolic ratio muscle/prostate weight (castrated rats, 0.75 mg/day): 1.83; anabolic ratio muscle/prostate weight (castrated rats, 1 mg/day): 1.51; derived dose that would restore levator ani muscle weight to 100% (castrated rats, oral gavage): 0.1 mg/day |
| C[C@](O)(COc1ccc(C#N)c(F)c1)C(=O)Nc1ccc(C#N)c(C(F)(F)F)c1 [XIII, (S)—N-(4-cyano-3-(trifluoromethyl)phenyl)-3-(4-cyano-3-fluorophenoxy)-2-hydroxy-2-methylpropanamide] | 0.03 ± 0.01 | 0.21 ± 0.04 | 71%±4% | 24%±4% | 15%±2% | 101%±15% | 37%±9% | 25%±9% | 125%±20% | 50%±11% | 67%±20% | 126%±14% | 88%±16% | 113%±6% | 151±9% | 132%±16% | 155%±16% | 143±17% | 118±12% | 160%±7% | ED50 in seminal vesicles: 0.2 ± 0.04 mg/day; Emax in levator ani: 147%±10%; Emax in prostate: 147%±10%; Emax in seminal vesicles: 188%±135%; dose that fully maintained or restored levator ani muscle weight (100% of intact) (oral gavage): 0.03 mg/day |
